From patent publication US9763443B2, “Control of bed bugs” (Ensystex Inc., priority 2011, dated 2017)

What was measured:
[1] = tested on: bed bugs; assay: Contact toxicity to bed bugs, general findings in the description; assay type: in vivo
[2] = tested on: humans and animals; conditions: even when applied directly to a subject's skin; cited from earlier work
[3] = tested on: bed bugs; assay: Toxicity and durability of toxicity of undiluted DMSO on filter paper in arenas (Example 1A); assay type: in vivo
Protocol: 0.1 milliliters of Fisher Biotech Molecular Biology Grade 99.7% DMSO (CAS#67-68-5) was applied to each of five 3.5 cm diameter disks of Fisherbrand Qualitative P8 filter paper. […] The arenas were placed in an incubator set to maintain a temperature of 22° C.
At the end of 24 hours, timed from the initial placement of the bed bugs on the filter papers, all of the arenas were removed from the incubator and opened and the bed bugs were examined. […] The bed bugs in the control jar were all still alive.
Without removing the filter paper, the dead bed bugs in the 5 arenas were removed and replaced by the same number (10) of live bed bugs in each arena. The arenas were again placed in the incubator and re-examined 24 hours later. The replacement bed bugs in the 5 arenas were also all dead.
All of the bed bugs in the control jar were all still alive at the end of the last testing interval.

[4] = tested on: bed bugs; assay: Repellency to bed bugs, general finding; assay type: in vivo; conditions: with or without additional insecticidal active ingredient, any DMSO concentration

Compound	toxicity-enhancing characteristics ([1]; as penetration enhancer in insecticidal formulations)	toxicity in exposure to humans and animals [2]	bed bug mortality at end of 24 hours ([3]; 0.1 mL 99.7% DMSO on 3.5 cm filter paper, 5 arenas, 10 bed bugs each, 22° C., first 24 hours)	mortality at end of each 24 hour interval, three more replications ([3]; same filter paper, replications 3 to 5 at 24 hour intervals)	mortality of replacement bed bugs 24 hours later ([3]; same filter paper, second 24 hour interval, 10 live bed bugs per arena)	repellency effects [4]	toxicity to bed bugs upon contact ([1]; DMSO alone, no insecticidal active ingredient or synergist)
CCCCCCCCCCCCN1CCCCCC1=O [laurocapram, reference compound]	exhibits toxicity-enhancing characteristics similar to DMSO						
C[S+](C)[O-] [DMSO, dimethyl sulfoxide]		low toxicity	All of the bed bugs in all 5 of the jars containing DMSO treated filter paper were dead	all bed bugs found to be dead	also all dead	not accompanied by any repellency effects	highly toxic to bed bugs upon contact
